Results as given in patent publication US20150366962A1 (priority 2014, published 2015).

How the values were obtained:
OVA [1] = assay: OVA immunization: anti-OVA IgG1 and IgG2c by ELISA; assay type: in vivo, C57BL/6 mice; settings: i.m. OVA 20 μg plus adjuvant, sera day 35
OVA [2] = assay: OVA immunization: splenocyte IFN-γ ELISA and ELISpot; assay type: in vivo, C57BL/6 mice
Protocol: AddaVax and vehicle were used as controls. The sera were collected on day 35, and the serum IgG1 (A) and IgG2c (B) levels were tested. (C) Splenocytes were incubated with OVA (100 μg/ml) for 3 days, and IFN-γ levels in the culture supernatants were determined by ELISA. Data were pooled from three experiments showing similar trends. (D and E) Myd88^−/−, Tri^flps/lps, or wild-type mice (n=8/group) were i.m. immunized with ovalbumin mixed with the indicated adjuvant or vehicle in a 50-μl volume on days 0 and 14. On day 35, splenocytes were incubated with OVA MHC class I peptides (OVA257-264) (D) or class II peptides (OVA323-339) (E) overnight, and IFN-γ-producing cells were detected by ELISpot assay. The data shown are pooled from 2 or 3 independent experiments showing similar trends. *, P 0.05 compared to no adjuvant (A to C) or the WT (D and E) by one-way ANOVA with Dunnett's post hoc testing.
Vehicle (10% DMSO in saline) and AddaVax (1:1 ratio with antigen in saline) were used as controls. Sera were collected on days 0, 7, 14, 21, 28, and 35. Mice were sacrificed on day 35, and the spleens were harvested. Approximately 2.5×10^6/ml spleen cells was dispersed into round-bottom microtiter plates in triplicate in a total volume of 200 μl complete RPMI 1640 and restimulated with either 100 μg/ml OVA or medium alone. The cultures were then incubated at 37° C., 5% CO2, and the supernatants were harvested after 72 h. The levels of gamma interferon (IFN-γ) in the culture supernatants were measured by ELISA (BD Bioscience, San Jose, Calif.) according to the manufacturer's instructions. In parallel, splenocytes were stimulated with 10 μg/ml OVA class I (OVA257-264) or class II (OVA323-339) peptide on anti-IFN-γ antibody-coated enzyme-linked immunospot (ELISpot) plates for 18 h. The results are reported as numbers of IFN-spot-forming cells (SFC) per million cells as described below.

PBMC = assay: IL-8 release by human PBMC; assay type: cell-based
Text: To confirm the activities of 1Z105/1V270 combined adjuvant in human cells, PBMC were stimulated with these agonists.

[3] = in EV3 and EV7; requested 0.22-0.44 mg/mL
[4] = system: A/Puerto Rico/8/1934(H1N1); set-up: species or system BALB/c mice; settings: mouse, in vivo
[5] = Histological examination for reactogenicity (H&E, injected muscle); assay type: in vivo, BALB/c mice; settings: for inflammation at the site of injection and systemically in comparison to AddaVax: 24 h after i.m. injection; for cellular infiltration in injected muscle (H&E): i.m. without antigen, 24 h after injection
Text: Scale bars, 100 μm. […] The error bars indicate SEM.
Twenty-four hours after injection, muscle tissues at the injection sites and sera were harvested. The muscles were fixed in 10% buffered formalin and embedded in paraffin. Sections 5 μm thick were stained with hematoxylin and eosin (H&E) and examined under a microscope.

[6] = system: Mouse bone marrow-derived dendritic cells (mBMDCs); assay: Antigen (OVA-Alexa Fluor 488) uptake in mouse BMDCs, flow cytometry; assay type: cell-based, C57BL/6 mice; settings: 10 μM 1Z105 or MPLA overnight, 37° C., OVA-488 last 30 min
Protocol: (§1) (A) Upregulation of antigen uptake by 1Z105. BMDCs prepared from C57BL/6 mice were incubated with 10 μM 1Z105 or MPLA overnight. Antigen, Alexa Fluor 488-conjugated ovalbumin (OVA-488), was added to the culture for the last 30 min of incubation. The cells were washed and stained for CD11c. OVA-associated dendritic cells in the CD11c^hi population were evaluated by flow cytometry. Cells incubated at 4° C. served as a negative control. (B and C) Enhancement of expression of costimulatory molecules by 1Z105.WT (B) or Tlr4^−/− (C) BMDCs were incubated with 1Z105 (10 or 2 μM) or MPLA (0.04 μg/ml) overnight, and expression of CD40 and CD86 was assessed by flow cytometric assay. (D) 1Z105 promotes antigen cross-presentation. Wild-type BMDCs were incubated with 1Z105 (2 μM) overnight, and OVA (10 μg/ml) was added to the culture for the last 4 h of incubation. […] OT-1 T-cell proliferation was monitored by flow-cytometric assay. […] Cytokine release of IL-1β, IL-6, IL-8, IL-12p70, and TNF-α was determined by Luminex bead assay. […]
(§2) Mouse bone marrow-derived dendritic cells (mBMDCs) were prepared from wild type or Tlr4^−/− C57BL/6 mice. mBMDCs (10^5 cells per well) were plated in 96-well plates in 200 μl of complete RPMI 1640. […] The cells were stained for CD11c, and OVA uptake and expression of CD40 and CD86 in the CD11chi-gated population was determined by flow cytometry.

[7] = system: Mouse bone marrow-derived dendritic cells (mBMDCs); assay: Costimulatory-molecule (CD40, CD86) expression in mouse BMDCs; assay type: cell-based, C57BL/6 mice
Protocol: as §1, §2

**Q.** Which results are given for `CCCCCCCCC=CCCCCCCCC(=O)OCC(COP(=O)(O)OCCNC(=O)c1ccc(Cn2c(=O)[nH]c3c(N)nc(OCCOC)nc32)cc1)OC(=O)CCCCCCCC=CCCCCCCCC` (stereo not shown) [Compound 1V270]?
**A.** serum anti-OVA IgG1 titers versus OVA alone (OVA [1]): did not induce IgG1 comparably to 1Z105; serum anti-OVA IgG2c titers versus OVA alone (OVA [1]): significantly higher IgG2c titers; dependence of increased antigen-specific T cell frequencies on MyD88 and TRIF (OVA [2]; Myd88-/- and TrifLps2/Lps2 versus wild-type mice): partially dependent upon the MyD88 and TRIF pathways; frequencies of IFN-γ-releasing T cells specific for OVA class I peptide (ELISpot) (OVA [2]; OVA257-264, day 35 splenocytes): increased frequencies; frequencies of IFN-γ-releasing T cells specific for OVA class II peptide (ELISpot) (OVA [2]; OVA323-339, day 35 splenocytes): increased frequencies; OVA-specific IFN-γ release by T cells restimulated ex vivo (OVA [2]; splenocytes, OVA 100 μg/ml, 3 days, ELISA): promoted OVA-specific IFN-γ release; IL-8 release by PBMC (PBMC): minimal levels of IL-8; solubility of 1V270 [3]: achieved to the requested concentration; mortality [4]: provided protective efficacy; survival after the lethal challenge [4]: 100%; weight loss [4]: significantly reduced weight loss; weight loss compared to AddaVax [4]: restricted weight loss compared to AddaVax; inflammation at the site of injection and systemically in comparison to AddaVax [5]: minimal inflammation; cellular infiltration in injected muscle (H&E) [5]: minimal cellular infiltration

**Q.** Which “OVA-associated CD11chi BMDCs (antigen uptake)” value [6] does the source give for `Cn1c2ccccc2c2nc(SCC(=O)NC3CCCCC3)n(-c3ccccc3)c(=O)c21` [Compound 1Z105] here?
**A.** increased number

**Q.** What about the “serum anti-OVA IgG1 titers versus OVA alone” value (OVA [1]) of the same compound?
**A.** significantly higher

**Q.** What about the “IL-8 release by PBMC” value (PBMC) of the same compound?
**A.** minimal levels of IL-8

**Q.** What about the “surface expression of CD40 and CD86” value ([7]; TLR4-deficient (Tlr4-/-) BMDCs) of the same compound?
**A.** not observed

**Q.** And the “surface expression of CD40 and CD86” value ([7]; WT BMDCs, 1Z105 10 or 2 μM, MPLA 0.04 μg/ml, overnight)?
**A.** increased the surface expression of CD40 and CD86 at levels similar to that of MPLA

**Q.** What about the mortality [4] of the same compound?
**A.** provided protective efficacy

**Q.** And the “mortality compared to no-adjuvant control receiving 5 μg of rHA” value [4]?
**A.** significantly minimized

**Q.** What about the “survival after the lethal challenge” value [4] of the same compound?
**A.** 100%

**Q.** And the weight loss [4]?
**A.** significantly reduced weight loss

**Q.** What about the “inflammation at the site of injection and systemically in comparison to AddaVax” value [5] of the same compound?
**A.** minimal inflammation

**Q.** And the “cellular infiltration in injected muscle (H&E)” value [5]?
**A.** minimal cellular infiltration
